Data published in publication PMC3942691, “The Dipeptide Monoester Prodrugs of Floxuridine and Gemcitabine—Feasibility of Orally Administrable Nucleoside Analogs” (Pharmaceuticals, 2014).
Like-named read-outs stand apart in the source and are kept apart here. Marks after values point to notes of the source that are not given here.

Columns and labels:
Caco-2 cell homogenates [1] = assay: Enzymatic stability in Caco-2 cell homogenates; assay type: in vitro ADME; settings: 500 µg/mL protein, 37 °C
Description: (§1) Confluent Caco-2, Panc-1, and AsPC-1cells were rinsed twice with phosphate buffered saline (PBS). The cells were lysed with phosphate buffer (pH 7.4) by ultrasonication (Micro ultrasonic cell disrupter Model KT40, Kontes, Vineland, NJ, USA), and pelleted by centrifugation for 5 min at 1,000 × g. Protein amount was quantified with the Bio-Rad (Hercules, CA, USA) DC Protein Assay using bovine serum albumin as a standard. The amount of protein was adjusted to 500 µg/mL and hydrolysis reactions were carried out in 96-well plates (Corning). […] The filtrate was then analyzed via reverse-phase HPLC.
(§2) The stability samples of prodrugs and their metabolites, and perfusion samples were determined on an Agilent HPLC system (Agilent Technologies, Santa Clara, CA, USA). […] Standard curves generated for each prodrug and their parent drug were utilized for quantitation of integrated area under peaks. […]
(§3) The experiments concerning drug and their prodrug stability were performed at 37 °C in 0.01 N HCl, SIF (pH 6.0), and pH 7.4 phosphate buffer. […] Prodrug metabolites such as floxuridine, 5-fluorouracil (5-FU), gemcitabine, 2′-deoxy-2′,2′-difluorouridine, uracil, and cytosine were monitored along with prodrug disappearance in this experiment.

Panc-1 cell homogenates = assay: Enzymatic stability in Panc-1 cell homogenates; assay type: in vitro ADME; settings: 500 µg/mL protein, 37 °C
Description: (§4) Confluent Caco-2, Panc-1, and AsPC-1cells were rinsed twice with phosphate buffered saline (PBS). The cells were lysed with phosphate buffer (pH 7.4) by ultrasonication (Micro ultrasonic cell disrupter Model KT40, Kontes, Vineland, NJ, USA), and pelleted by centrifugation for 5 min at 1,000 × g. Protein amount was quantified with the Bio-Rad (Hercules, CA, USA) DC Protein Assay using bovine serum albumin as a standard. The amount of protein was adjusted to 500 µg/mL and hydrolysis reactions were carried out in 96-well plates (Corning). Caco-2, Panc-1, and AsPC-1 cell suspensions (250 µL) were placed in triplicate wells, the reactions were started with the addition of substrate, and cells were incubated at 37 °C for 120 min. At the desired time point, sample aliquots (35 µL) were removed and added to acetonitrile (ACN, 150 µL) with 0.1% TFA. The mixtures were filtered with a 0.45 µm filters at 1,000 × g for 10 min at 4 °C. The filtrate was then analyzed via reverse-phase HPLC.
(§5) The stability samples of prodrugs and their metabolites, and perfusion samples were determined on an Agilent HPLC system (Agilent Technologies, Santa Clara, CA, USA). The HPLC system consisted of Agilent pumps (1100 series), an Agilent autosampler (1200 series), and an Agilent UV-Vis detector (1100 series) controlled by Chemstation® 32 software (version B.01.03). Samples were resolved in an Agilent Eclipse Plus C18 reverse-phase column (3.5 µm, 4.6 × 75 mm) equipped with a guard column. The mobile phase consisted of 0.1% TFA/water (Solvent A) and 0.1% TFA/acetonitrile (Solvent B) with the solvent B gradient changing from 0%–56% at a rate of […] during a 15 min run for gemcitabine and gemcitabine prodrugs. Standard curves generated for each prodrug and their parent drug were utilized for quantitation of integrated area under peaks. The detection wavelength was 254 nm and spectra were acquired in the 220–380 nm wavelength range. The detection wavelength for phenol red was 430 nm.
as §3

AsPC-1 cell homogenates [2] = assay: Enzymatic stability in AsPC-1 cell homogenates; assay type: in vitro ADME; settings: 500 µg/mL protein, 37 °C
Description: as §1, §2, §3

[3] = system: Caco-2, Panc-1, and AsPC-1 cell homogenates; assay: Enzymatic stability compared across Caco-2, Panc-1 and AsPC-1 cell homogenates; assay type: in vitro ADME
Description: as §1
The experiments concerning drug and their prodrug stability were performed at 37 °C in 0.01 N HCl, SIF (pH 6.0), and pH 7.4 phosphate buffer. […] Prodrug metabolites such as floxuridine, 5-fluorouracil (5-FU), gemcitabine, 2′-deoxy-2′,2′-difluorouridine, uracil, and cytosine were monitored along with prodrug disappearance in this experiment. However, the mass balance could not be established because 5-FU, cytosine and uracil were metabolized even further and those metabolites could not be quantified by HPLC [11, 50]. The specific kinetic parameters in drug/prodrug metabolism could not be determined without the mass balance and the data of enzymatic activities and their expression levels because those metabolic activities were simultaneously taken place. […]

[4] = Enzymatic stability in Panc-1 cell homogenates; assay type: in vitro ADME; settings: human, Panc-1 cell homogenates, pH 7.4; 500 µg/mL protein, 37 °C; read-out: Panc-1 cell homogenates t1/2
Description: as §4, §5, §3

Caco-2 cell homogenates [5] = settings: cited from earlier work
AsPC-1 cell homogenates [6] = settings: cited from earlier work
[7] = Enzymatic stability in Caco-2 cell homogenates; assay type: in vitro ADME; settings: human, Caco-2, pH 7.4; 500 µg/mL protein, 37 °C; read-out: Caco-2 cell homogenates t1/2
Description: as §1, §2, §3

[8] = Enzymatic stability in AsPC-1 cell homogenates; assay type: in vitro ADME; settings: human, AsPC-1 cell homogenates, pH 7.4; 500 µg/mL protein, 37 °C; read-out: AsPC-1 cell homogenates t1/2
Description: as §1, §2, §3

AsPC-1 cells = system: AsPC-1 cells; design: method as in PMID 18652477; settings: cited from earlier work

Molecule: 2′,2′-difluoro-2′-deoxyuridine [Gemcitabine]
- Caco-2 cell homogenates t1/2 (Caco-2 cell homogenates [1]): 105.0 ± 6.1 min
- Panc-1 cell homogenates t1/2 (Panc-1 cell homogenates): >120 min
- AsPC-1 cell homogenates t1/2 (AsPC-1 cell homogenates [2]): 33.7 ± 14.5 min
- degradation in AsPC-1 cells compared with Caco-2 and Panc-1 cells [3]: three- to four- times faster

Molecule: NC(Cc1ccccc1)C(=O)NC(Cc1ccc(O)cc1)C(=O)OCC1OC(n2cc(F)c(=O)[nH]c2=O)CC1O [5′-L-Phenylalanyl-L-tyrosyl-floxuridine]
- half-life [4]: 40.4 ± 0.2 min
- Caco-2 cell homogenates t1/2 (Caco-2 cell homogenates [5]): 103.8 ± 55.5 ^b min
- AsPC-1 cell homogenates t1/2 (AsPC-1 cell homogenates [6]): 59.7 ± 1.4 ^b min

Molecule: Nc1ccn(C2OC(COC(=O)C(Cc3ccc(O)cc3)NC(=O)C(N)Cc3ccccc3)C(O)C2(F)F)c(=O)n1 [5′-L-Phenylalanyl-L-tyrosyl-gemcitabine]
- half-life [7]: 14.7 ± 4.4 min
- half-life [4]: 30.2 ± 1.1 min
- half-life [8]: 8.1 ± 0.6 min

Molecule: O=c1[nH]c(=O)n([C@H]2C[C@H](O)[C@@H](CO)O2)cc1F [Floxuridine, 5-fluoro-2′-deoxyuridine]
- half-life [4]: 41.7 ± 6.8 min
- degradation in AsPC-1 cells compared with Caco-2 and Panc-1 cells [3]: two- to six-times faster
- Caco-2 cell homogenates t1/2 (Caco-2 cell homogenates [5]): 14.3 ± 7.0 ^a min
- AsPC-1 cell homogenates t1/2 (AsPC-1 cell homogenates [6]): 6.4 ± 3.2 ^a min
- GI50 (AsPC-1 cells): 22.9 ± 5.7 mM
